# In patent publication US7713996B2, “Indolyl derivatives which are L-CPT1 inhibitors” (Hoffmann-La Roche Inc., priority 2005, dated 2010):
# Target: T1, L-CPT1 (Homo sapiens, UniProt P50416)
# T1 construct: made in house; host or cells: Pichia pastoris strain X-33
# T1 sequence (P50416 1-773): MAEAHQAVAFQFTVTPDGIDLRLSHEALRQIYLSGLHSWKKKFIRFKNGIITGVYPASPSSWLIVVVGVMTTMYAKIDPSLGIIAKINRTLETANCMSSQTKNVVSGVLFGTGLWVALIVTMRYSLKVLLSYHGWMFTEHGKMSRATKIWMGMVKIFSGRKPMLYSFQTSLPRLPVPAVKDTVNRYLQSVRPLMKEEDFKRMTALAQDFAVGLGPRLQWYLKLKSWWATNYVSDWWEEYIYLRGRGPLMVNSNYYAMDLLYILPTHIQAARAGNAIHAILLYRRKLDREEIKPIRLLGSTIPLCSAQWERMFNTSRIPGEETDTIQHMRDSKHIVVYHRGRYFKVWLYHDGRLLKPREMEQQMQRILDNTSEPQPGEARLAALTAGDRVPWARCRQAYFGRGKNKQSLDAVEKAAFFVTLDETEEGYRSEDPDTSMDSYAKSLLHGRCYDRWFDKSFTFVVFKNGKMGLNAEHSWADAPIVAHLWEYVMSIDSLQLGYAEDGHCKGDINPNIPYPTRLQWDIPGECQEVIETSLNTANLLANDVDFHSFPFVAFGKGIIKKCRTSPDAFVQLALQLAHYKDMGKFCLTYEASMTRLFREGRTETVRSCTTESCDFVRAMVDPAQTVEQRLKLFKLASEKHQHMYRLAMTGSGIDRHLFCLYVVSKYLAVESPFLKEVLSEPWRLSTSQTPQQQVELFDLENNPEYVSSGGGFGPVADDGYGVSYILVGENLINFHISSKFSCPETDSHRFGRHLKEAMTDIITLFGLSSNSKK
# Assay: L-CPT1 inhibition, spectrophotometric CPT activity assay with DTNB (Ellman's reagent)
# Assay type: biochemical
# Details: human liver CPT1 expressed in P. pastoris, cell extracts; carnitine 500 μM, palmitoyl-CoA 80 μM, DTNB 300 μM, pH 7.4
# Protocol: The following tests were carried out in order to determine the activity of the compounds of the present invention. Background information on the performed assays can be found in: Jackson et al., 1999, Biochem. J. 341, 483-489 and Jackson et al., 2000, J. Biol. Chem. 275, 19560-19566.
# Human liver and muscle CPT1 cDNAs and rat CPT2 cDNA were subcloned in pGAPZB or pGAPZA, respectively. These plasmids were used to transform P. pastoris strain X-33 via electroporation after the preparation of electrocompetent cells. High copy number clones were selected where necessary using 0.5 or 1 mg/ml Zeocin. Cultures for activity measurements were induced for 16 h in YPD medium (1% yeast extract, 2% peptone, 2% glucose). Crude cell extracts were prepared by disrupting the cells with glass beads or French Press, depending on fermenter sizes. After centrifugation, the cell-free extracts were resuspended in cell breaking buffer (50 mM Tris, pH7.4, 100 mM KCl, 1 mM EDTA) in the presence of a protease inhibitor cocktail, before aliquoting and freezing at −20° C.
# CPT activity was measured using a spectrophotometric assay using 5,5′-dithio-bis-(2-nitrobenzoic acid) (DTNB) also called Ellman's reagent. The HS-CoA released on the formation of acylcarnitine from carnitine (500 μM) and palmitoyl-CoA (80 μM) reduced DTNB (300 μM) forming 5-mercapto-(2-nitrobenzoic acid) which absorbed at 410 nm with a molar coefficient extinction of 13600 M^−1·cm^−1. The assay buffer contained 120 mM KCl, 25 mM Tris, pH 7.4, 1 mM EDTA. This assay was used for the identification of selective inhibitors of the liver CPT1 isoform versus the muscle CPT1 and CPT2 isoforms.
row,IC50,Structure (SMILES)
1,160 nM,"O=C(Nc1ccc(C(=O)O)c(Cl)c1)c1ccc2c(c1)N(S(=O)(=O)c1cccc(Cl)c1)CC2 [Example 1, 2-Chloro-4-{[1-(3-chloro-benzenesulfonyl)-2,3-dihydro-1H-indole-6-carbonyl]-amino}-benzoic acid]"
2,72.2 nM,"COc1ccc(Cl)cc1S(=O)(=O)N1CCc2ccc(C(=O)Nc3ccc(C(=O)O)c(F)c3)cc21 [Example 12, 4-{[1-(5-Chloro-2-methoxy-benzenesulfonyl)-2,3-dihydro-1H-indole-6-carbonyl]-amino}-2-fluoro-benzoic acid]"
3,20.6 nM,"COc1ccc(Cl)cc1S(=O)(=O)N1CCc2ccc(C(=O)Nc3ccc(C(=O)O)cc3)cc21 [Example 31, 4-{[1-(5-Chloro-2-methoxy-benzenesulfonyl)-2,3-dihydro-1H-indole-6-carbonyl]-amino}-benzoic acid]"
